Each compound was assayed against human Cav2.2 (Homo sapiens, UniProt Q00975) (assay: Assessment of calcium channel activity using FLIPR (Ca2+ influx in IMR32 cells)). Details: 60 minute pre-incubation with compound, 2 μM nifedipine, depolarized with 80 mM KCl.
Sequence of human Cav2.2 (Q00975 whole entry): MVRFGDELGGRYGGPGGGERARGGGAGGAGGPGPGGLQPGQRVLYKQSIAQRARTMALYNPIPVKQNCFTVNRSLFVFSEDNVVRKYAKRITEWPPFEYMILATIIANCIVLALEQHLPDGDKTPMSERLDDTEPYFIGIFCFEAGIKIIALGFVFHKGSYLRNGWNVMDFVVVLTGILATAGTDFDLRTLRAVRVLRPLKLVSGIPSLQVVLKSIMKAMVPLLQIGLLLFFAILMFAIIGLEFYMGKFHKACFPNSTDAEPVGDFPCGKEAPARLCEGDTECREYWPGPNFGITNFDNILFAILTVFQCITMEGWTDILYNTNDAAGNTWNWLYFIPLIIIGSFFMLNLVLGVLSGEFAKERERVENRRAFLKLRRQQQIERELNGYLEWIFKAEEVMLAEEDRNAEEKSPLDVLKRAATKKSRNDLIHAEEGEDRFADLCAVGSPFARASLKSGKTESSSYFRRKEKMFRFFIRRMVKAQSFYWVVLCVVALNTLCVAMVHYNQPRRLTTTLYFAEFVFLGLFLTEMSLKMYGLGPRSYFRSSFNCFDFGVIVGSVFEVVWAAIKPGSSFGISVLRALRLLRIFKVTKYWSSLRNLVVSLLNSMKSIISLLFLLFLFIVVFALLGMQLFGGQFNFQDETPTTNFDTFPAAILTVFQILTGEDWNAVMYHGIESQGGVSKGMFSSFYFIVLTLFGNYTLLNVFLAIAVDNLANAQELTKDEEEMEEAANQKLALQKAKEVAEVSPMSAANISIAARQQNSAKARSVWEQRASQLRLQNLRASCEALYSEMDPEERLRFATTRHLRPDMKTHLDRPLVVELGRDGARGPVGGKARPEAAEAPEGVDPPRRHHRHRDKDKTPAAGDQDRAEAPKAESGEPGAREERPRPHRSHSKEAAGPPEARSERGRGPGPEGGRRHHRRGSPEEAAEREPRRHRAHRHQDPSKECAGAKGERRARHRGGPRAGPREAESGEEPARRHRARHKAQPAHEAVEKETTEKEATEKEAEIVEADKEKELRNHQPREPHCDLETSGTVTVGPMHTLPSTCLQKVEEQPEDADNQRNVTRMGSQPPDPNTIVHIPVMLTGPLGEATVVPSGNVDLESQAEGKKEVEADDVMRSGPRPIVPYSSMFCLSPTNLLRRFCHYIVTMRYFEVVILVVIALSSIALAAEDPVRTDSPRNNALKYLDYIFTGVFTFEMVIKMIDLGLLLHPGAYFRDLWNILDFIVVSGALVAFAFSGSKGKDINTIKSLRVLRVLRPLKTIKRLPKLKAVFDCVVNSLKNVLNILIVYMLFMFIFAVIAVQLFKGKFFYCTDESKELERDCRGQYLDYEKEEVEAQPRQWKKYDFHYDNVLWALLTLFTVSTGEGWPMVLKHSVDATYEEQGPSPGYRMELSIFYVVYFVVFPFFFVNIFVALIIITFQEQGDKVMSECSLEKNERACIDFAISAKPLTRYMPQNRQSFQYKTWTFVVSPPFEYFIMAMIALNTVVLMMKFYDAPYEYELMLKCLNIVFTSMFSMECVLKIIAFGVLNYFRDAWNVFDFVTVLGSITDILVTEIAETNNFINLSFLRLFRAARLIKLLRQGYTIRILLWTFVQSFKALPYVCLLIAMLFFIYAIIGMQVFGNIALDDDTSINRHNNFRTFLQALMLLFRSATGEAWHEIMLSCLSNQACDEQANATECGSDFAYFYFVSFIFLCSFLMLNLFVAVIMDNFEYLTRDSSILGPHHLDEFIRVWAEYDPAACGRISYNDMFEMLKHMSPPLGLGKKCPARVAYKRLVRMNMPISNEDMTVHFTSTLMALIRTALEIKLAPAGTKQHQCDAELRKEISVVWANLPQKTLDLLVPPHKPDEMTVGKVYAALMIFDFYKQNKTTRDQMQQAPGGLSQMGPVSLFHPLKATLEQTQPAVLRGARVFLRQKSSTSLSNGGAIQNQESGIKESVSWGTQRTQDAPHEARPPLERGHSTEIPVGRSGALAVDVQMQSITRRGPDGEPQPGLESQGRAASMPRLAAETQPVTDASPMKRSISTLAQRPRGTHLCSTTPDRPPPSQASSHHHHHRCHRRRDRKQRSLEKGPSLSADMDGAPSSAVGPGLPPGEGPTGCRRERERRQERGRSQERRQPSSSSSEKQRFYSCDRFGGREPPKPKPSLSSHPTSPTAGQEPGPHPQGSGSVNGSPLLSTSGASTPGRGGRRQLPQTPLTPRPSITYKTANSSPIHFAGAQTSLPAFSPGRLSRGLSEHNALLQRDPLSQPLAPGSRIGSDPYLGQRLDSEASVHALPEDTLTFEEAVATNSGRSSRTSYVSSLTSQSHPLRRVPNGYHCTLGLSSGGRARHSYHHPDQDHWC
Sequence of human Cav2.2 (P54289 25-946 partner limits assumed): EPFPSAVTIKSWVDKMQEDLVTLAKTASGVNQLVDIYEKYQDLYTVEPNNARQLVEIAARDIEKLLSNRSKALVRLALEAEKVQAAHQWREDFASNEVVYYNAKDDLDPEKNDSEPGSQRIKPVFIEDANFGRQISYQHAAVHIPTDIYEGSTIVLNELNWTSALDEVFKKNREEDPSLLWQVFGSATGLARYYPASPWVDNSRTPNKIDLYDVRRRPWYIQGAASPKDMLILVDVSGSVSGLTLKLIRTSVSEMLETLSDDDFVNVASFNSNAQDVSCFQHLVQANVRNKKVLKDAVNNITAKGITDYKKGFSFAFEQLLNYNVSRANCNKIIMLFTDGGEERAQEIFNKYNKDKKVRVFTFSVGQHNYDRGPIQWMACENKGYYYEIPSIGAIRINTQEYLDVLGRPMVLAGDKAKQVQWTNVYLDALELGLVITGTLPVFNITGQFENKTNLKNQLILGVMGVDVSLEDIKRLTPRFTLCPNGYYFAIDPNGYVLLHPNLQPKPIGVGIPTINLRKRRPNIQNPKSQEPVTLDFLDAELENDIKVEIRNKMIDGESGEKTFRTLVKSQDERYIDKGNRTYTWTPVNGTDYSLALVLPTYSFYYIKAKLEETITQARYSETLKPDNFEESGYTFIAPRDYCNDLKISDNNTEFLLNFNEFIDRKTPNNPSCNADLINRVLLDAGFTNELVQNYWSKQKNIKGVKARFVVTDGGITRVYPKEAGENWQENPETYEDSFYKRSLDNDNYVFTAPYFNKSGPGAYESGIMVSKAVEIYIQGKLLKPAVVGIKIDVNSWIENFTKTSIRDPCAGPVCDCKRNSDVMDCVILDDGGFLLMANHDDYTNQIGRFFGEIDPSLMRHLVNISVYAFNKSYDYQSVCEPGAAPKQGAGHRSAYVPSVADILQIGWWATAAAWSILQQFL
Sequence of human Cav2.2 (P54289 947-1103 partner limits assumed): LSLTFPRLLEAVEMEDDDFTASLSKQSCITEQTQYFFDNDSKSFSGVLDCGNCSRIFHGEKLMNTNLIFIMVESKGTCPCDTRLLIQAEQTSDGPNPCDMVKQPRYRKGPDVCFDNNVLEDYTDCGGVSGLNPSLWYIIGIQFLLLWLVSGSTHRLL
Sequence of human Cav2.2 (P54284 whole entry partner): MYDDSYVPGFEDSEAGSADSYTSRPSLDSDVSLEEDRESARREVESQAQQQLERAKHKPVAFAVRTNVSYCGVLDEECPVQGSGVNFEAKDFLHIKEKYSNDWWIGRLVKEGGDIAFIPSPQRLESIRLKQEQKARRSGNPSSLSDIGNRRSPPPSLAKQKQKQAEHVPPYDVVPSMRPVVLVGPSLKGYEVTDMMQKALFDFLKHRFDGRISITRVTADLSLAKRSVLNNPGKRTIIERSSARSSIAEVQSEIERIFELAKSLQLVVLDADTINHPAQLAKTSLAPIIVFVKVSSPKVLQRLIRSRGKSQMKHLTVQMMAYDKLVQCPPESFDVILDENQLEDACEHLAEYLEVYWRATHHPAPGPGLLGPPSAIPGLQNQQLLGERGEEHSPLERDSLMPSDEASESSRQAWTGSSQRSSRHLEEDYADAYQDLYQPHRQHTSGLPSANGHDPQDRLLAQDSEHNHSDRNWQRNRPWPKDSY
Format: cell-based
Outline: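 IC50 came from sigmoidal non-linear regression of percent inhibition, relative to uninhibited activity, across compound concentrations. Calcium influx was measured by FLIPR in IMR32 cells plated at 1-1.2×10^5 cells/well and cultured 48 h at 37 °C.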
For CN(C(=O)OC(C)(C)C)C(Cc1ccccc1)C(=O)NC1CCC2CN(S(=O)(=O)c3ccc(C(F)(F)F)cc3)CC21 [Example 258, N-(tert-butoxycarbonyl)-N-methyl-N-((3aR,4S,6aS)-2-{[4-(trifluoromethyl)phenyl]sulfonyl}octahydrocyclopenta[c]pyrrol-4-yl)-1-phenylalaninamide], the IC50 was 0.85 µM. CCC[C@@H](C(=O)N[C@H]1CC[C@@H]2CN(S(=O)(=O)c3ccc(C(F)(F)F)cc3)C[C@@H]21)N(C)C(=O)OC(C)(C)C [Example 259, tert-butyl methyl((S)-1-oxo-1-((3aR,4S,6aS)-2-(4-(trifluoromethyl)phenylsulfonyl)octahydrocyclopenta[c]pyrrol-4-ylamino)pentan-2-yl)carbamate] gave an IC50 of 1.14 µM. For CC(C)(C)C[C@H](NC(=O)OC(C)(C)C)C(=O)N[C@H]1CC[C@@H]2CN(c3ccc(C(F)(F)F)cn3)C[C@@H]21 [Example 262, tert-butyl(S)-4,4-dimethyl-1-oxo-1-((3aR,4S,6aS)-2-(5-(trifluoromethyl)pyridin-2-yl)octahydrocyclopenta[c]pyrrol-4-ylamino)pentan-2-ylcarbamate], the IC50 was 1.8 µM. CC(C)(C)C[C@H](NC(=O)OC(C)(C)C)C(=O)N[C@H]1CC[C@@H]2CN(c3cccc(C(F)(F)F)n3)C[C@@H]21 [Example 264, tert-butyl(S)-4,4-dimethyl-1-oxo-1-((3aR,4S,6aS)-2-(6-(trifluoromethyl)pyridin-2-yl)octahydrocyclopenta[c]pyrrol-4-ylamino)pentan-2-ylcarbamate] showed an IC50 of 0.28 µM. CC(C)(C)C[C@H](NC(=O)OC(C)(C)C)C(=O)N[C@H]1CC[C@@H]2CN(c3cnc(S(C)(=O)=O)nc3)C[C@@H]21 [Example 265, tert-butyl(S)-4,4-dimethyl-1-((3aR,4S,6aS)-2-(2-(methylsulfonyl)pyrimidin-5-yl)octahydrocyclopenta[c]pyrrol-4-ylamino)-1-oxopentan-2-ylcarbamate] showed an IC50 of 2.62 µM. CC(C)(C)OC(=O)N1CCC[C@H]1C(=O)N[C@@H]1CC[C@H]2CN(S(=O)(=O)c3cccc(C(F)(F)F)c3)C[C@H]21 [Example 266, (S)-tert-butyl 2-((3aS,4R,6aR)-2-(3-(trifluoromethyl)phenylsulfonyl)octahydrocyclopenta[c]pyrrol-4-ylcarbamoyl)pyrrolidine-1-carboxylate] gave an IC50 of 0.87 µM. With CC(C)(C)OC(=O)N1CCCC[C@H]1C(=O)N[C@@H]1CC[C@H]2CN(S(=O)(=O)c3cccc(C(F)(F)F)c3)C[C@H]21 [Example 268, tert-butyl(2S)-2-{[((3aS,4R,6aR)-2-{[3-(trifluoromethyl)phenyl]sulfonyl}octahydrocyclopenta[c]pyrrol-4-yl)amino]carbonyl}piperidine-1-carboxylate] the IC50 was 0.73 µM. For CN(C(=O)OC(C)(C)C)C(Cc1ccccc1)C(=O)NC1CCC2CN(S(=O)(=O)c3cccc(C(F)(F)F)c3)CC21 [Example 270, N-(tert-butoxycarbonyl)-N-methyl-N-((3aR,4S,6aS)-2-{[3-(trifluoromethyl)phenyl]sulfonyl}octahydrocyclopenta[c]pyrrol-4-yl)-L-phenylalaninamide], the IC50 was 0.77 µM. Work on CC(C)(C)OC(=O)N1CCC[C@H]1C(=O)N[C@H]1CC[C@@H]2CN(S(=O)(=O)c3cccc(C(F)(F)F)c3)C[C@@H]21 [Example 271, (S)-tert-butyl 2-((3aR,4S,6aS)-2-(3-(trifluoromethyl)phenylsulfonyl)octahydrocyclopenta[c]pyrrol-4-ylcarbamoyl)pyrrolidine-1-carboxylate] yielded an IC50 of 3.41 µM. CC(C)[C@@H](CC(=O)N[C@H]1CC[C@@H]2CN(S(=O)(=O)c3cccc(C(F)(F)F)c3)C[C@@H]21)NC(=O)OC(C)(C)C [Example 272, tert-butyl(1R)-1-isopropyl-3-oxo-[((3aR,4S,6aS)-2-{[3-(trifluoromethyl)phenyl]sulfonyl}octahydrocyclopenta[c]pyrrol-4-yl)amino]propylcarbamate] was tested, and the IC50 was 5.14 µM.
